Data from paper PMC5908784, “Extracellular loops 2 and 3 of the calcitonin receptor selectively modify agonist binding and efficacy” (Biochemical Pharmacology, 2018).
Where a chain is given by its changes, count along the chain named. Where no end group is shown, it is not given here.

Assays:
Experiment in all cases: Homologous whole cell competition binding
Conditions in all cases: homologous competition of 125I-sCT(8-32), whole cells, mean ± S.E.M., SEM
[1] = biological target: T1, hCTR D373A (Homo sapiens, UniProt P30988, D373A)
T1 construct: c-Myc (N); expressed in transfected cells
T1 sequence (P30988 25-474 D373A): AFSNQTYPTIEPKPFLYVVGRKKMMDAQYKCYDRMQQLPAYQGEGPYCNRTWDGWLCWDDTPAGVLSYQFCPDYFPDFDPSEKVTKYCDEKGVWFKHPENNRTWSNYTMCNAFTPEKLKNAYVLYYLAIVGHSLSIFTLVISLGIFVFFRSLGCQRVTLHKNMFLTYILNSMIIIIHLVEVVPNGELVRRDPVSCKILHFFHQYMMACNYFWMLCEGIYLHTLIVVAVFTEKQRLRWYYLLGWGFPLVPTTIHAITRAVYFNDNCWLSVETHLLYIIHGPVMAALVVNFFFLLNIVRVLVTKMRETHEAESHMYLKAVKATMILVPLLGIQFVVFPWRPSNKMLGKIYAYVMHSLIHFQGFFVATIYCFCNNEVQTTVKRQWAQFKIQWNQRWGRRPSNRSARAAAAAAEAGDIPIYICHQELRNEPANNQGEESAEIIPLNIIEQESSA
Summary of the method: (§1)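 Values are pKi, derived from IC50 of unlabelled sCT(8-32) displacing ^125I-sCT(8-32) (25–100 pM) from whole cells after overnight incubation at 4 °C. Specific binding was scaled between tracer-only total and 1 μM cold-peptide background.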

[2] = biological target: T2, hCTR P360A (Homo sapiens, UniProt P30988, P360A)
T2 construct: expressed in transfected cells
T2 sequence (P30988 25-474 P360A): T1 sequence (P30988 25-474 D373A) with P336A, A349D
Summary of the method: as §1

[3] = biological target: T3, hCTR G369A (Homo sapiens, UniProt P30988, G369A)
T3 construct: c-Myc (N); expressed in transfected cells
T3 sequence (P30988 25-474 G369A): T1 sequence (P30988 25-474 D373A) with G345A, A349D
Summary of the method: as §1

[4] = biological target: T4, hCTR M367A (Homo sapiens, UniProt P30988, M367A)
T4 construct: c-Myc (N); expressed in transfected cells
T4 sequence (P30988 25-474 M367A): T1 sequence (P30988 25-474 D373A) with M343A, A349D
Summary of the method: as §1

Ki [1]: 525 pM
Ki [2]: 603 pM
Ki [3]: 229 pM
Ki [4]: 295 pM
Substance: VLGKLSQELHKLQTYPRTNTGSGTP-NH2 [sCT(8-32)]
